In the NIST ThermoML archive (doi:10.1021/je300827f):

Assay: xn = mol fraction of the nth substance listed
Conditions: 101 kPa, Liquid; for viscosity: Capillary tube (Ostwald / Ubbelohde) method; for mass density: Vibrating tube method

CCC(C)O (centres undefined) [butan-2-ol] + OCCOCCO
x2 = 0
Conditions | mass density [kg/m3] | viscosity [mPa·s]
298.15 K | 802.7 | 3.1
303.15 K | 798.3 | 2.6
308.15 K | 793.6 | 2.15
313.15 K | 789.1 | 1.73

OCCOCCO [diethylene glycol] + CCCC(C)O
Conditions | mass density, 298.15 K [kg/m3] | mass density, 303.15 K [kg/m3] | mass density, 308.15 K [kg/m3] | mass density, 313.15 K [kg/m3] | viscosity, 298.15 K [mPa·s] | viscosity, 303.15 K [mPa·s] | viscosity, 308.15 K [mPa·s] | viscosity, 313.15 K [mPa·s]
x1 = 0.0811 | 827.8 | 823.5 | 818.9 | 814.6 | 3.85 | 3.17 | 2.84 | 2.47
x1 = 0.1598 | 849.9 | 845.5 | 840.8 | 836.5 | 4.44 | 3.55 | 3.29 | 2.93
x1 = 0.2399 | 872.9 | 868.4 | 863.5 | 859.2 | 5.12 | 4.05 | 3.79 | 3.44
x1 = 0.3501 | 905.1 | 900.6 | 895.7 | 891.3 | 6.37 | 5.03 | 4.58 | 4.26
x1 = 0.4398 | 931.9 | 927.5 | 922.6 | 918.2 | 7.79 | 6.17 | 5.42 | 5.08
x1 = 0.5599 | 968.7 | 964.2 | 959.5 | 955.2 | 10.37 | 8.3 | 6.9 | 6.46
x1 = 0.6501 | 997.1 | 992.8 | 988.1 | 983.9 | 12.9 | 10.35 | 8.33 | 7.74
x1 = 0.7399 | 1025.8 | 1021.7 | 1017.4 | 1013.1 | 15.92 | 12.81 | 10.08 | 9.22
x1 = 0.8499 | 1061.8 | 1058.1 | 1053.9 | 1050 | 20.26 | 16.33 | 12.72 | 11.36
x1 = 0.9399 | 1091.9 | 1088.3 | 1084.7 | 1081.1 | 24.28 | 19.56 | 15.31 | 13.35
x1 = 1 | 1112.4 | 1109.1 | 1105.6 | 1102.3 | 27.14 | 21.87 | 17.26 | 14.81

CC(C)O [propan-2-ol] + OCCOCCO
x2 = 0
Conditions | mass density [kg/m3] | viscosity [mPa·s]
298.15 K | 781.1 | 2.06
303.15 K | 776.7 | 1.79
308.15 K | 771.8 | 1.56
313.15 K | 767.4 | 1.38
